Source: PMC10629583, “Specific inhibition of an anticancer target, polo-like kinase 1, by allosterically dismantling its mechanism of substrate recognition” (Proceedings of the National Academy of Sciences of the …, 2023)

Tests used:
[1] = test system: U2OS cells expressing Pendo-mGFP-Plk1 WT; experiment: MTS proliferation assay, U2OS Plk1 RNAi cells expressing WT Plk1; format: cell-based; settings: WT Plk1, 3 to 6 μM, 36 h
Experimental: Cell viability was determined using the […] CellTiter 96® AQueous One Solution Cell Proliferation Assay (MTS) kit (Promega) containing a tetrazolium compound [3-(4,5-dimethylthiazol-2-yl)-5-(3-carboxymethoxy-phenyl)-2-(4-sulfophenyl)-2H-tetrazolium, inner salt (MTS)] and an electron-coupling phenazine ethosulfate. For the MTS assays in Fig. 1B, L363 cells cultured in a 96-well plate were treated with the indicated compounds for 48 h (the final volume of 100 μL). After the compound treatment, cells were additionally treated with 20 μL of the MTS solution and incubated at 37 °C for 2 to 4 h in a humidified 5% CO2 atmosphere. The absorbance of the resulting sample was measured at 490 nm using a PerkinElmer EnSpire Multimode 96-well plate reader. For the MTS assays in Fig. 4E, U2OS cells stably expressing either Pendo-mGFP-Plk1 WT or F559D were seeded at approximately 5,000 cells/well in a 96-well plate, depleted of endogenous Plk1 by RNAi, and then treated with either control DMSO or Allopole as indicated in the schematic diagram in SI Appendix, Fig. S4E.

[2] = test system: mGFP-Plk1 F559D at centrosomes, U2OS cells; experiment: Confocal quantification of Pendo-mGFP-Plk1 F559D in U2OS cells (siPlk1); format: cell-based; settings: U2OS siPlk1, 8 μM, 2 or 16 h
Experimental: (§1) To corroborate the importance of the F559 residue for Allopole-A binding, U2OS cells expressing endogenous promoter (i.e., Pendo)-controlled mGFP-Plk1 WT or F559D mutant were depleted of endogenous Plk1 by RNAi for 48 h (SI Appendix, Fig. S4C), treated with control DMSO or 8 μM of Allopole for 2 or 16 h, and fixed (SI Appendix, Fig. S4D). Afterward, the level of mGFP fluorescence was quantified using confocal microscopy (Fig. 4 C and D). As expected from the results shown in Fig. 1 C and D, Allopole delocalized mGFP-Plk1 WT from centrosomes within 2 h after treatment, and this effect was sustained for up to 16 h. […] This could be attributable to the fact that unlike PBIP1, which binds to PBD1 through the self-priming and binding mechanism ([49]), Bub1, BubR1, and likely Cdc25C require Cdc2-dependent priming phosphorylation to interact with PBD1 ([42]–[44]). […]
(§2) Confocal images of unsaturated fluorescence signals were acquired under the same laser intensity at the 12-bit resolution. Fluorescence intensities for identifiable centrosome and kinetochore signals were quantified after the maximum-intensity projection of z-stacks using the Zeiss ZEN v2.1 software (Carl Zeiss Microscopy, LLC). Data were quantified from three independent experiments.

[3] = test system: mGFP-Plk1 WT at centrosomes, U2OS cells; experiment: Confocal quantification of Pendo-mGFP-Plk1 WT in U2OS cells (siPlk1); format: cell-based; settings: U2OS siPlk1, 8 μM
Experimental: as §1, §2

[4] = test system: Flag-Plk1 F559D interactions with p-PBIP1, p-Bub1, p-BubR1, p-Cdc25C; experiment: Coimmunoprecipitation, HeLa cells expressing Flag-Plk1 F559D; format: cell-based; settings: 20 μM for 2 h, nocodazole + okadaic acid
Experimental: For coimmunoprecipitation analyses shown in Figs. 1C and 4F, HeLa cells stably expressing PCMV-Flag-Plk1 WT (pKM3863) (Fig. 1C) and its respective F559D mutant (pKM7979) (Fig. 4F) were generated using a lentiviral expression system. Prior to harvest, the cells were treated with 600 nM of nocodazole and 300 nM of okadaic acid (OA) for 16 h and 1.5 h, respectively, to enrich the level of phosphorylated proteins and additionally treated with either control DMSO or 20 μM of Allopole for 2 h. Immunoprecipitation was carried out essentially as described previously ([49]) in TBSN buffer [20 mM Tris–Cl (pH 8.0), 150 mM NaCl, 0.5% NP-40, 5 mM EGTA, 2 mM MgCl2, 1.5 mM EDTA, 2 mM DTT, 20 mM p-nitrophenyl phosphate (PNPP), and protease inhibitor cocktail (Roche)] using anti-Flag antibody (Sigma-Aldrich). Immunoprecipitates were separated by sodium dodecyl sulfate–polyacrylamide gel electrophoresis (SDS-PAGE) and then immunoblotted according to standard procedures using an enhanced chemiluminescence detection system (Thermo Fisher Scientific). The antibodies that were used to detect specific indicated proteins in Fig. 1C are listed in SI Appendix, Table S6.

Plk3 PBD (PBD3) = biological target: T1, Plk3 PBD (PBD3) (Homo sapiens, UniProt Q9H4B4); experiment: FP-based inhibition assay, PBD3; format: binding; settings: bacterially expressed purified PBD, FITC-ligand 15 nM, PBD at EC85
T1 construct: MBP-PBD3-His (335–646) (pKM3359) and its A612F (pKM7981); His (C); made in house; host or cells: bacteria (E. coli)
T1 sequence (Q9H4B4 335-646): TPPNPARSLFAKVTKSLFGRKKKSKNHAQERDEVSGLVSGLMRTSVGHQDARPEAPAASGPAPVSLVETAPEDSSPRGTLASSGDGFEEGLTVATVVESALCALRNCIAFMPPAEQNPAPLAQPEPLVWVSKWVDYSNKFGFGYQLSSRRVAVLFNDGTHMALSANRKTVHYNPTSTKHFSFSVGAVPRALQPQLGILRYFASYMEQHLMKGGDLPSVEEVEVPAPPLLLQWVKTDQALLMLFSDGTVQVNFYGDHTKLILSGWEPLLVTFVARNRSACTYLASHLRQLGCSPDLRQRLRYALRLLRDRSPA
Experimental: (§3) FP assays were carried out essentially as described previously ([35], [36]). FITC-conjugated ligands (15 nM) were mixed with PBDs at their EC85 concentrations. All the samples were analyzed approximately 30 min after reaction in a 384-well format using the SpectraMax Paradigm multimode microplate detection platform (Molecular Devices). Data were analyzed after carrying out at least three independent experiments using GraphPad Prism software version 8.

PBD1 F559K mutant = biological target: T2, PBD1 F559K mutant (Homo sapiens, UniProt P53350, F559K); experiment: FP-based binding/inhibition assay, PBD1 F559K; settings: PBD1 F559K, 2 µM protein
T2 construct: constructs expressing PBD1 (residues 345–603) WT (pKM7650); His; TEV site (N); made in house; host or cells: bacteria (E. coli)
Experimental: as §3
Fig. S4. Generation of F559 mutants for in vitro and cell-based assays in Fig. 4. (A) SDS-PAGE showing the proteins used for the FP assays in Fig. 4 A and B. CBB, a Coomassie Brilliant Blue– stained gel. (B) Summary of Kd and EC85 values for PBD1 WT and mutants. The Kd values for PBD1 WT and mutants were determined after extrapolating them from the binding curves as the concentration at which 50% of the FITC-Ahx-DPPLHSpTAI-NH2 are PBD1-bound. The EC85 values indicate the effective concentration of 85% of the maximal concentration calculated for each protein. The FP values were obtained 30 minutes after incubation. For the F559K and F559R mutants, we were not able to determine the EC85 values and therefore used 2 µM of these proteins for the assays in Fig. 4B. N.D., not determined. […]

T2 sequence (P53350 345-603 F559K): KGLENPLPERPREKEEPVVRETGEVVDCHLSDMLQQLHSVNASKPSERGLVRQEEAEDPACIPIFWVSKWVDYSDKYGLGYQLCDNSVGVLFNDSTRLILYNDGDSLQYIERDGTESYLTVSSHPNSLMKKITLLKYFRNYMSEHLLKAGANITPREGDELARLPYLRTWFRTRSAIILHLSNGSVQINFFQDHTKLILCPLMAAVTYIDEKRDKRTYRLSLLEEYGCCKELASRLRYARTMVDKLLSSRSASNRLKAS

Row | SMILES | Proliferation rate (in words) [1] | Level of centrosome-localized mGFP-Plk1 F559D (in words) [2] | Time to delocalization of mGFP-Plk1 WT from centrosomes [3] [h] | Phosphoproteins coprecipitating with Flag-Plk1 F559D (in words) [4] | PBD3 IC50 ± SD (Plk3 PBD (PBD3)) | Inhibition of FITC-phosphopeptide binding (in words) (PBD1 F559K mutant)
1 | Cn1cnc([N+](=O)[O-])c1Sc1nnc2n(CC3CC3)c(=O)c3sc(Cl)cc3n12 [Allopole] | significant reduction in their proliferation rate | failed to alter the level | ≤ 2 | coimmunoprecipitated p-PBIP1, p-Bub1, p-BubR1, and p-Cdc25C effectively | – | –
2 | O=c1c2sc(Cl)cc2n2c(=S)[nH]nc2n1CC1CC1 [Allopole-A] | – | – | – | – | N. S. | failed to inhibit
